Results from patent publication US5883240A, “Genetic sequences encoding glucocorticoid dehydrogenases and uses therefor” (Baker Medical Research Institute, priority 1995, dated 1999).

How the values were obtained:
[1] = target: T1, 11 βHSD2 (Homo sapiens, UniProt P80365); experiment: Directionality and end-product inhibition in intact pHSD2 transfected CHOP cells; format: cell-based; details: monolayer cultures, 1.5 hours at 37° C., labelled substrate, TLC of culture medium
T1 sequence (P80365 1-405 V148L): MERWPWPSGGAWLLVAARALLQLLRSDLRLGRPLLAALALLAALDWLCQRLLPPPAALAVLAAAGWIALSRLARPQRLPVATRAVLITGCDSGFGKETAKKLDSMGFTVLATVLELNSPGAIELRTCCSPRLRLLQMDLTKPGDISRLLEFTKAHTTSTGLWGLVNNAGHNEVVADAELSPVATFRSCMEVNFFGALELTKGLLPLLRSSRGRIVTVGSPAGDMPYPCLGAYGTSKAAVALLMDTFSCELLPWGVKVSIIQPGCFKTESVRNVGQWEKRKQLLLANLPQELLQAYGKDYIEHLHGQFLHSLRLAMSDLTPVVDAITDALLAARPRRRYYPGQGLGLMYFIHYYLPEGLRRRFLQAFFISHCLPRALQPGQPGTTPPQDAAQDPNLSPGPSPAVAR
Protocol: To determine directionality and extent of end production inhibition of the enzyme encoded by pHSD2, monolayer cultures of transfected CHOP cells were incubated for 1.5 hours at 37° C. with 1-2 nM labelled substrates plus 10 nM corresponding unlabelled 11-dehydro metabolite (FIG. 2b). The culture medium was then removed, extracted and assayed by TLC for the presence of the 11-dehydro metabolite.

[2] = target: T1, 11 βHSD2; experiment: Cofactor specificity of glucocorticoid metabolism in homogenates of pHSD2 transfected CHOP cells; format: biochemical; details: 1 mM NAD+ or 1 mM NADP+, 1-2 nM tritiated plus 10 nM unlabelled substrate, 37° C., 40 minutes, TLC
Protocol: CHOP cells were transfected with plasmid pHSD2, which contains an insert encoding 11 βHSD2. After 60 hours incubation in 85 mm plates, cellular homogenates were prepared and assayed for their ability to metabolise glucocorticoid substrates in the presence of 1 mM NAD+, or 1 mM NADP+. Confluent cells were homogenised in 1 ml of homogenisation buffer (0.25M sucrose, 10 MM phosphate, pH 7). Reaction mixtures (500 μl) contained either 40 μl of homogenate plus [^3 H]corticosterone, or 80 μl of homogenate plus [^3 H]cortisol, or 120 μl of homogenate plus [^3 H]dexamethasone, in homogenisation buffer. All reactions contained 1-2 nM tritiated glucocorticoid substrate plus 10 nM unlabelled glucocorticoid substrate. Reaction mixtures were incubated at 37° C. for 40 minutes and steroid metabolites were assayed by thin layer chromatography.

[3] = target: T1, 11 βHSD2; format: biochemical; details: substrate Km, double reciprocal plot, homogenates of pHSD2 transfected CHOP cells, 37° C., mean±SD, n=3
From the text: The efficiency of the dehydrogenase may be further increased by mechanisms such as intracellular compartmentalisation of the enzyme.

Compound	metabolite formation by intact transfected CHOP cells [1]	glucocorticoid metabolism to 11-dehydro metabolite, cofactor dependence [2]	Km [3]
C[C@]12CCC(=O)C=C1CC[C@@H]1[C@@H]2C(=O)C[C@@]2(C)[C@H]1CC[C@]2(O)C(=O)CO [cortisone]	no metabolite formed	–	–
C[C@]12CCC(=O)C=C1CC[C@@H]1[C@@H]2[C@@H](O)C[C@@]2(C)[C@H]1CC[C@]2(O)C(=O)CO [cortisol]	converted	only showed significant glucocorticoid metabolism when NAD+, but not NADP+, was included as a cofactor	0.047 ± 0.0018 µM
C[C@]12C[C@H](O)[C@H]3[C@@H](CCC4=CC(=O)CC[C@@]43C)[C@@H]1CC[C@@H]2C(=O)CO [corticosterone]	converted	only showed significant glucocorticoid metabolism when NAD+, but not NADP+, was included as a cofactor	0.0044 ± 0.0012 µM
C[C@@H]1C[C@H]2[C@@H]3CCC4=CC(=O)C=C[C@]4(C)[C@@]3(F)[C@@H](O)C[C@]2(C)[C@@]1(O)C(=O)CO [dexamethasone]	–	only showed significant glucocorticoid metabolism when NAD+, but not NADP+, was included as a cofactor	–
C[C@]12CC(=O)[C@H]3[C@@H](CCC4=CC(=O)CC[C@@]43C)[C@@H]1CC[C@@H]2C(=O)CO [11-dehydro corticosterone]	no metabolite formed	–	–
